Data from patent US10363251B2, “(+)-morphinans as antagonists of toll-like receptor 9 and therapeutic uses thereof” (Mallinckrodt LLC, priority 2009, dated 2019).

Molecular target: T1, TLR9 (Homo sapiens, UniProt Q9NR96)
T1 construct: expressed in transfected cells; host or cells: HEK293
T1 sequence (Q9NR96 26-1032): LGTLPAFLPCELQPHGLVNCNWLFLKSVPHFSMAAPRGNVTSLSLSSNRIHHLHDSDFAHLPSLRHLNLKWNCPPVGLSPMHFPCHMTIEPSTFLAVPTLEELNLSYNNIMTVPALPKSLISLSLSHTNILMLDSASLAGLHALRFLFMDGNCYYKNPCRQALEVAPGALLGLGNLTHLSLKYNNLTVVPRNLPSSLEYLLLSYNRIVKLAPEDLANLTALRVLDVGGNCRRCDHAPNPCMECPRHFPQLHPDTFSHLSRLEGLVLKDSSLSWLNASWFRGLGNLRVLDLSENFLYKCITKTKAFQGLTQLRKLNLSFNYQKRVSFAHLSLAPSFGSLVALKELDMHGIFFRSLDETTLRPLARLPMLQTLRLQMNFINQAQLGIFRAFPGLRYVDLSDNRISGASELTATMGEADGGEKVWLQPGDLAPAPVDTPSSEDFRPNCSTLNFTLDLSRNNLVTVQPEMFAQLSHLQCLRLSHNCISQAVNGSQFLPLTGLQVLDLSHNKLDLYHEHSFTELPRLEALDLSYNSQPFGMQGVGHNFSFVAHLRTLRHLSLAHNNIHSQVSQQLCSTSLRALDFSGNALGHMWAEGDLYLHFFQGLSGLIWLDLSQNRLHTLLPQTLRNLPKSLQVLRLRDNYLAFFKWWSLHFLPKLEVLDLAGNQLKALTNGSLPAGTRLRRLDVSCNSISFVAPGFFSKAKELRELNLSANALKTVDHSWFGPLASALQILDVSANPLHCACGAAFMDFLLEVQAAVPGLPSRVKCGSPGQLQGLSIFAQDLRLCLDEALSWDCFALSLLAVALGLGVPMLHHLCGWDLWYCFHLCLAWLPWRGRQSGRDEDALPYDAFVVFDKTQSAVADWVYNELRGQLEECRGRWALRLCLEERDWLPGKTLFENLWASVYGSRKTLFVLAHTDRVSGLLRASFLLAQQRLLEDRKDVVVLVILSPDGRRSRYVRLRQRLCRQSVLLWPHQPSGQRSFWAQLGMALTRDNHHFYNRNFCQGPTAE
Assay: TLR9 screening of (+)-morphinan library, SEAP reporter in HEK293 cells expressing TLR9
Assay type: cell-based
Settings: activator ODN2006; for OD 650 nm (mean ± sd): control (no activator) 0.14, activator 1.42 OD; for inhibition at 0.1 µM: HEK293, read-out: % Inhibition (mean), 100 nM; for inhibition at 10 µM: HEK293, read-out: % Inhibition (mean), 10 μM
Method: The secreted alkaline phosphatase reporter is under the control of a promoter inducible by the transcription factor NF-κB. A library of more than 100 (+)-morphinan compounds was screened for TLR9 antagonist activity by assessing NF-κB activation in the HEK293 cells expressing TLR9. This reporter gene allows the monitoring of signaling through the TLR, based on the activation of NF-κB.
In a 96-well plate (200 μL total volume) containing 50,000 cells/well, 20 μL of each sample compound was added to wells, in triplicate, followed by a 30 minute incubation at 37° C. and 5% CO2. After the 30 minutes of incubation, 20 μL of the activator ODN2006 was added to each well. The media added to the wells was designed for the detection of NF-κB induced SEAP expression. After a 16-20 hr incubation period, the OD at 650 nm was read on a Beckman Coulter AD 340C Absorbance Detector. All compounds were tested at concentrations of 10 μM and 100 nM.

Row | Structure (SMILES) | % Inhibition (mean) (100 nM, 0.1 µM) [%] | OD 650 nm (mean ± sd) (100 nM) [OD] | % Inhibition (mean) (10 μM) [%] | OD 650 nm (mean ± sd) (10 μM) [OD] | inhibition at 0.1 µM [%] | inhibition at 10 µM [%]
1 | COc1ccc2c3c1O[C@@H]1C(=O)CC[C@@H]4[C@H](C2)N(C(=O)C2CC2)CC[C@@]314 [II-30] | 5 | 1.34 ± 0.11 | 20 | 1.13 ± 0.06 |  | 
2 | COc1ccc2c3c1O[C@@H]1C(=O)CC[C@@H]4[C@H](C2)N(C(C)=O)CC[C@@]314 [II-31] |  | 1.40 ± 0.04 |  | 1.37 ± 0.11 | 2 | 3
3 | COc1ccc2c3c1O[C@@H]1C(=O)CC[C@@H]4[C@H](C2)N(C(=O)c2ccccc2)CC[C@@]314 [II-33] |  | 1.35 ± 0.15 |  | 1.37 ± 0.03 | 5 | 3
4 | COC1=CC=C2[C@@H]3Cc4ccc(OC)c5c4[C@]2(CCN3C)[C@@H]1O5 [II-34] |  | 1.39 ± 0.05 |  | 0.94 ± 0.08 | 2 | 34
5 | C=CCN1CC[C@]23C4=CC=C(OC)[C@H]2Oc2c(OC)ccc(c23)C[C@@H]41 [II-35] |  | 1.04 ± 0.08 |  | 0.34 ± 0.03 | 27 | 76
6 | COC1=CC=C2[C@@H]3Cc4ccc(OC)c5c4[C@]2(CCN3CC2CC2)[C@@H]1O5 [II-36] |  | 1.14 ± 0.02 |  | 0.14 ± 0.01 | 20 | 90
7 | COC1=CC=C2[C@@H]3Cc4ccc(OC)c5c4[C@]2(CCN3CC2CCC2)[C@@H]1O5 [II-37] |  | 1.13 ± 0.07 |  | 0.18 ± 0.06 | 20 | 87
8 | COc1ccc2c3c1O[C@@H]1C(=O)CC[C@]4(O)[C@H](C2)N(C)CC[C@@]314 [II-39] |  | 1.23 ± 0.03 |  | 1.06 ± 0.06 | 14 | 25
9 | COc1ccc2c3c1O[C@@H]1C(O)CC[C@]4(O)[C@H](C2)N(C)CC[C@@]314 (stereo partly drawn) [II-40] |  | 1.41 ± 0.13 |  | 1.37 ± 0.07 | 0 | 4
10 | C=C1CC[C@]2(O)[C@@H]3Cc4ccc(OC)c5c4[C@]2(CCN3C)[C@@H]1O5 [II-41] |  | 1.27 ± 0.03 |  | 1.02 ± 0.09 | 11 | 28
11 | COc1ccc2c3c1O[C@@H]1C(NC(C)=O)CC[C@]4(O)[C@H](C2)N(C)CC[C@@]314 (stereo partly drawn) [II-42] |  | 1.00 ± 0.03 |  | 0.14 ± 0.02 | 29 | 90
12 | COc1ccc2c3c1O[C@@H]1C(N)CC[C@]4(O)[C@H](C2)N(C)CC[C@@]314 (stereo partly drawn) [II-43] |  | 0.10 ± 0.01 |  | 0.09 ± 0.00 | 93 | 94
13 | COc1ccc2c3c1O[C@@H]1CCC[C@]4(O)[C@H](C2)N(C)CC[C@@]314 [II-44] |  | 1.18 ± 0.02 |  | 1.03 ± 0.12 | 17 | 27
14 | COc1ccc2c3c1O[C@@H]1[C@@H]4CCC5(O4)[C@H](C2)N(C)CC[C@@]315 [II-46] |  | 1.24 ± 0.02 |  | 1.30 ± 0.02 | 13 | 8
15 | C=CCN1CC[C@@]23c4c5ccc(OC)c4O[C@@H]2C(=O)CC[C@]3(O)[C@@H]1C5 [II-47] |  | 1.18 ± 0.13 |  | 0.78 ± 0.07 | 17 | 45
16 | C=CCN1CC[C@@]23c4c5ccc(OC)c4O[C@@H]2C(=C)CC[C@]3(O)[C@@H]1C5 [II-51] |  | 1.20 ± 0.04 |  | 0.84 ± 0.05 | 16 | 41
17 | COc1ccc2c3c1O[C@@H]1C(O)CC[C@]4(O)[C@H](C2)N(CC2CCC2)CC[C@@]314 (stereo partly drawn) [II-55] |  | 1.46 ± 0.08 |  | 1.17 ± 0.08 | -3 | 18
18 | COc1ccc2c3c1O[C@@H]1C(=O)CC[C@@H]4[C@H](C2)N(C(=O)C2CC2)CC[C@@]314 [II-57] | 41 | 0.84 ± 0.02 |  | 1.15 ± 0.03 |  | 19
19 | COc1ccc2c3c1O[C@@H]1C(=O)CC[C@]4(O)[C@H](C2)N(C(=O)C2CCC2)CC[C@@]314 [II-59] |  | 1.19 ± 0.07 |  | 1.41 ± 0.13 | 17 | 1
20 | COc1ccc2c3c1O[C@@H]1C(=O)CC[C@]4(O)[C@H](C2)N(C(=O)c2ccccc2)CC[C@@]314 [II-60] |  | 1.24 ± 0.04 |  | 0.17 ± 0.03 | 13 | 88
21 | O=C1CC[C@@H]2[C@@H]3Cc4ccc(O)c5c4[C@]2(CCN3)[C@@H]1O5 [II-61] |  | 1.23 ± 0.02 |  | 1.22 ± 0.07 | 13 | 14
22 | CN(C(=O)/C=C/c1ccoc1)[C@H]1CC[C@]2(O)[C@@H]3Cc4ccc(O)c5c4[C@]2(CC[N+]3([O-])CC2CC2)[C@@H]1O5 (stereo partly drawn) [II-63] |  | 0.23 ± 0.07 |  | 0.13 ± 0.01 | 84 | 91
23 | C=CCN1CC[C@@]23c4c5ccc(O)c4O[C@@H]2C(=O)CC[C@]3(O)[C@@H]1C5 [II-64] |  | 1.31 ± 0.14 |  | 0.98 ± 0.01 | 8 | 31
24 | C=CCN1CC[C@@]23c4c5ccc(O)c4O[C@@H]2C(=O)CC[C@]3(OC)[C@@H]1C5 [II-70] |  | 1.12 ± 0.04 |  | 0.79 ± 0.03 | 21 | 45
25 | NC1CC[C@]2(O)[C@@H]3Cc4ccc(O)c5c4[C@]2(CCN3CC2CC2)[C@@H]1O5 (stereo partly drawn) [II-71] |  | 0.19 ± 0.01 |  | 0.10 ± 0.00 | 87 | 93
26 | COc1ccc2c3c1O[C@@H]1[C@@H]4CCC5(O4)[C@H](C2)N(CC2CC2)CC[C@@]315 [II-72] |  | 1.10 ± 0.02 |  | 0.49 ± 0.01 | 22 | 65
27 | O=C1CC[C@]2(O)[C@@H]3Cc4ccc(O)c5c4[C@]2(CCN3CC2CC2)[C@@H]1O5 [II-73] |  | 1.35 ± 0.13 |  | 0.96 ± 0.08 | 5 | 32
28 | CC(=O)NC1CC[C@]2(O)[C@@H]3Cc4ccc(O)c5c4[C@]2(CCN3CC2CC2)[C@@H]1O5 (stereo partly drawn) [II-75] |  | 1.08 ± 0.02 |  | 0.91 ± 0.11 | 24 | 36
29 | OCCNC1CC[C@]2(O)[C@@H]3Cc4ccc(O)c5c4[C@]2(CCN3CC2CC2)[C@@H]1O5 (stereo partly drawn) [II-76] |  | 0.16 ± 0.01 |  | 0.10 ± 0.01 | 89 | 93
30 | C=C1CC[C@]2(O)[C@@H]3Cc4ccc(O)c5c4[C@]2(CCN3CC2CC2)[C@@H]1O5 [II-77] |  | 1.24 ± 0.04 |  | 0.98 ± 0.02 | 13 | 37
